Structures are written as SMILES. Counter-ions that a name gives are not always drawn.

One assay has as its system apomorphine climbing. As to the kind of experiment: climbing mice assay (apomorphine-induced climbing, antipsychotic activity). It is filed as in vivo. To be noted: Mus musculus, 0.5 h; 20 mg/kg, ip @ 30 (min before apomorphine 1.5 mg/kg sc); read-out: CLIMBING MOUSE % (percent response, climbing score vs. control set to 100%). On the procedure:
The compounds of the present invention are useful for treating psychoses by virtue of their ability to elicit an antipsychotic response in mammals. Antipsychotic activity is determined in the climbing mice assay by a method similar to those described by P. Protais, et al., Psychopharmacol.,50:1 (1976) and B. Costall, Eur. J. Pharmacol., 50:39 (1978).
Subject […] male mice (23-27 grams) are group-housed under standard laboratory conditions. The mice are individually placed in wire mesh stick cages (4"×10") and are allowed one hour for adaption and exploration of the new environment. Then apomorphine is injected subcutaneously at 1.5 mg/kg, a dose causing climbing in all subjects for 30 minutes. Compounds to be tested for antipsychotic activity are injected intraperitioneally or given by oral doses at various time intervals., e.g. 30 minutes, 60 minutes, etc., prior to the apomorphine challenge at a screening dose of 10-60 mg/kg.
For evaluation of climbing, 3 readings are taken at 10, 20 and 30 minutes after apomorphine administration according to the following scale:
4 paws on bottom (no climbing)
2 paws on the wall (rearing)
4 paws on the wall (full climb)
Mice consistently climbing before the injection of apomorphine are discarded.
With full-developed apomorphine climbing, the animals are hanging on to the cage walls, rather motionless, over long periods of time. By contrast, climbs due to mere motor stimulation usually only last a few seconds.
The climbing scores are individually totaled (maximal score: 6 per mouse over 3 readings) and the total score of the control group (vehicle intraperitoneally-apomorphine subcutaneously) is set to 100%. The percent response at a dose of 20 mg/kg. or the ED50 values with 95% confidence limits, calculated by a linear regression analysis, of some of the compounds of the present invention as well as a standard antipsychotic agent are presented in Table 1.
For the molecule `O=C(NCCCCN1CCN(c2csc3cc(F)ccc23)CC1)C12CC3CC(CC(C3)C1)C2` [N-[4-[4-(6-Fluorobenzo[b]thien-3-yl)-1-piperazinyl]butyl]-adamantane-1-carboxamide maleate], the change in vivo at 20 mg/kg was -79%.

As for `O=C1c2ccccc2C(O)N1CCN1CCN(c2csc3cc(F)ccc23)CC1` (stereo not shown) [2-[2-[4-(6-Fluorobenzo[b]thien-3-yl)-1-piperazinyl]-ethyl-2,3-dihydro-3-hydroxy-1H-isoindol-1-one], the change in vivo at 20 mg/kg is -43%.

Take `O=C1c2ccccc2C(=O)N1CCN1CCN(c2csc3cc(F)ccc23)CC1` [N-[2-[4-(6-Fluorobenzo[b]thien-3-yl)-1-piperazinyl]-ethyl]-phthalimide]: the change in vivo at 20 mg/kg was -25%.

With `O=C1c2ccccc2C(=O)N1CCCCN1CCN(c2csc3cc(F)ccc23)CC1` [2-[4-[4-(6-Fluorobenzo[b]thien-3-yl)-1-piperazinyl]butyl]-1H-isoindole-1,3(2H)-dione], the change in vivo at 20 mg/kg was -100%.

For `NCCCCN1CCN(c2csc3cc(F)ccc23)CC1` [4-(6-Fluorobenzo[b]thien-3-yl)-1-piperazinebutanamine (Z)-2-butenedioate (1:2)], the change in vivo at 20 mg/kg is -34%.

Consider `CC(=O)N(CCCCN1CCN(c2csc3cc(F)ccc23)CC1)C(=O)C(C)C` [N-Acetyl-N-[4-[4-(6-fluorobenzo[b]thien-3-yl)-1-piperazinyl]butyl]-2-methyl-propanamide], for which the change in vivo at 20 mg/kg was -75%.

For `Fc1ccc2c(N3CCN(CCCCN4Cc5ccccc5C4)CC3)csc2c1`, the change in vivo at 20 mg/kg was -33%.

For the molecule `O=C(NCCCCN1CCN(c2csc3cc(F)ccc23)CC1)c1cccs1` [N-[4-[4-(6-Fluorobenzo[b]thien-3-yl)-1-piperazinyl]butyl]-2-thiophenecarboxamide (Z)-2-butenedioate (1:1)], the change in vivo at 20 mg/kg is -100%.

Staying with this assay, now noted: Mus musculus, 0.5 h; ip @ 30 (min before apomorphine 1.5 mg/kg sc); parentheses = 95% confidence limits.
The ED50 is the dose that gives a 50% effect, or the effect in half of the subjects. In the case of `CC(C)C(=O)NCCCCN1CCN(c2csc3cc(F)ccc23)CC1` [N-[4-[4-(6-fluorobenzo[b]thien-3-yl)-1-piperazinyl]butyl]-2-methyl-propanamide], the ED50 was 1.3 mg/kg.

For `CC(=O)NCCCCN1CCN(c2csc3cc(F)ccc23)CC1` [N-[4-[4-(6-Fluorobenzo[b]thien-3-yl)-1-piperazinyl]butyl-acetamide], the ED50 stood at 1.35 mg/kg.

The values above are taken from patent publication US5801176A, “Substituted benzothienylpiperazines and their use” (Hoechst Marion Roussel, Inc., priority 1997, dated 1998).
